Tests used:
Assay in all cases: relative viability (nuclei count vs DMSO), 5 days (fraction); higher = more cells survive
[1] = compound: CC[C@H](C)N1C=C(C2=C(C=C(C=C21)C3=CN=C(C=C3)N4CCNCC4)C(=O)NCC5=C(C=C(NC5=O)C)C)C [GSK126] + N=C(N)NC(=N)NCCc1ccccc1 [Phenformin] (partner 250 µM)
Summary of the method: (§1)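 Lung cancer cell lines were pin-tool dosed in 1536-well plates on the day after seeding, with either a lone drug or a fixed anchor-drug dose plus five library-drug doses (not always all listed) in √10 steps. Nuclei were counted on 4× images after 5 days. Relative viability is the ratio of treated-well to vehicle-well nuclei counts, with each value a median of duplicate plates.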

[2] = compound: C1CC(C1)(C(=O)O)C(=O)O.[NH2-].[NH2-].[Pt+2] [Carboplatin] + CS(=O)(=O)N1CCN(Cc2cc3nc(-c4cccc5[nH]ncc45)nc(N4CCOCC4)c3s2)CC1 [Pictilisib] (partner 1 µM)
Summary of the method: as §1

[3] = compound: CC[C@H](C)N1C=C(C2=C(C=C(C=C21)C3=CN=C(C=C3)N4CCNCC4)C(=O)NCC5=C(C=C(NC5=O)C)C)C [GSK126] + O=C(c1cc(Cc2n[nH]c(=O)c3ccccc23)ccc1F)N1CCN(C(=O)C2CC2)CC1 [Olaparib] (partner 8 µM)
Summary of the method: as §1

[4] = compound: NS(=O)(=O)OC[C@@H]1C[C@@H](n2ccc3c(N[C@H]4CCc5ccccc54)ncnc32)C[C@@H]1O [MLN4924] + C[C@@H](Oc1cc(-c2cnn(C3CCNCC3)c2)cnc1N)c1c(Cl)ccc(F)c1Cl [Crizotinib] (partner 1 µM)
Summary of the method: as §1

| Cell Line | relative viability ([1]; first compound 0.08 µM) | relative viability ([1]; first compound 0.253 µM) | relative viability ([1]; first compound 0.8 µM) | relative viability ([1]; first compound 2.53 µM) | relative viability ([1]; first compound 8 µM) | relative viability ([2]; first compound 0.08 µM) | relative viability ([2]; first compound 0.253 µM) | relative viability ([2]; first compound 0.8 µM) | relative viability ([2]; first compound 2.53 µM) | relative viability ([2]; first compound 8 µM) | relative viability ([3]; first compound 0.08 µM) | relative viability ([3]; first compound 0.253 µM) | relative viability ([3]; first compound 0.8 µM) | relative viability ([3]; first compound 2.53 µM) | relative viability ([3]; first compound 8 µM) | relative viability ([4]; first compound 0.04 µM) | relative viability ([4]; first compound 0.1265 µM) | relative viability ([4]; first compound 0.4 µM) | relative viability ([4]; first compound 1.265 µM) | relative viability ([4]; first compound 4 µM) |
| --- | --- | --- | --- | --- | --- | --- | --- | --- | --- | --- | --- | --- | --- | --- | --- | --- | --- | --- | --- | --- |
| NCI-H1355 | 0.524 | 0.448 | 0.434 | 0.454 | 0.391 | 0.394 | 0.537 | 0.461 | 0.431 | 0.454 | 0.809 | 0.754 | 0.772 | 0.752 | 0.774 | 1.04 | 1.03 | 0.963 | 0.484 | 0.208 |
| NCI-H1437 | 0.298 | 0.362 | 0.269 | 0.319 | 0.311 | 0.433 | 0.401 | 0.414 | 0.381 | 0.413 | 0.649 | 0.621 | 0.605 | 0.554 | 0.575 | 0.854 | 0.77 | 0.626 | 0.336 | 0.164 |
| NCI-H1650 | 0.531 | 0.404 | 0.44 | 0.361 | 0.358 | 0.741 | 0.651 | 0.563 | 0.519 | 0.416 | 0.742 | 0.849 | 0.761 | 0.784 | 0.901 | 1.04 | 0.658 | 0.333 | 0.202 | 0.166 |
| NCI-H1651 | 0.369 | 0.268 | 0.354 | 0.313 | 0.364 | 0.681 | 0.498 | 0.644 | 0.452 | 0.411 | 0.183 | 0.175 | 0.176 | 0.178 | 0.161 | 0.913 | 0.85 | 0.76 | 0.357 | 0.167 |
| NCI-H1666 | 0.586 | 0.595 | 0.598 | 0.522 | 0.569 | 0.527 | 0.561 | 0.404 | 0.403 | 0.389 | 0.745 | 0.723 | 0.742 | 0.729 | 0.76 | 1.18 | 0.669 | 0.306 | 0.25 | 0.236 |
| NCI-H1734 | 0.474 | 0.361 | 0.393 | 0.382 | 0.418 | 0.51 | 0.47 | 0.487 | 0.451 | 0.424 | 0.633 | 0.685 | 0.628 | 0.701 | 0.756 | 0.688 | 0.622 | 0.305 | 0.121 | 0.131 |
| NCI-H1755 | 0.656 | 0.637 | 0.614 | 0.562 | 0.555 | 0.432 | 0.442 | 0.407 | 0.417 | 0.391 | 0.9 | 0.922 | 0.877 | 0.826 | 0.822 | 0.798 | 0.761 | 0.52 | 0.181 | 0.154 |
| NCI-H1792 | 0.344 | – | 0.262 | 0.255 | 0.228 | 0.327 | 0.261 | 0.236 | 0.22 | 0.246 | 0.471 | 0.351 | 0.507 | 0.374 | 0.551 | 0.961 | 0.906 | 0.834 | 0.69 | 0.346 |
| NCI-H1915 | 0.412 | 0.374 | 0.404 | 0.359 | 0.371 | 0.938 | 0.929 | 0.919 | 0.85 | 0.588 | 0.271 | 0.277 | 0.25 | 0.266 | 0.269 | 0.862 | 0.751 | 0.844 | 0.19 | 0.15 |
| NCI-H1944 | 0.194 | 0.196 | 0.183 | 0.168 | 0.178 | 0.338 | 0.321 | 0.336 | 0.327 | 0.342 | 0.431 | 0.376 | 0.402 | 0.408 | 0.387 | 1.06 | 0.842 | 0.649 | 0.179 | 0.167 |
| NCI-H1975 | 0.465 | 0.412 | 0.392 | 0.422 | 0.405 | 0.324 | 0.305 | 0.306 | 0.315 | 0.302 | 0.785 | 0.789 | 0.721 | 0.809 | 0.762 | 0.876 | 1.11 | 1.17 | 0.484 | 0.22 |
| NCI-H1993 | 0.501 | 0.546 | 0.501 | 0.522 | 0.554 | 0.805 | 0.891 | 0.745 | 0.869 | 0.811 | 1.21 | 1.02 | 1 | 1.06 | 0.893 | 1.02 | 0.678 | 0.626 | 0.447 | 0.622 |
| NCI-H2009 | 0.506 | 0.467 | 0.442 | 0.43 | 0.359 | 0.825 | 0.816 | 0.761 | 0.79 | 0.558 | 0.755 | 0.653 | 0.714 | 0.588 | 0.713 | 0.859 | 0.544 | 0.242 | 0.0917 | 0.0613 |
| NCI-H2023 | 0.445 | 0.383 | 0.373 | 0.377 | 0.278 | 0.262 | 0.27 | 0.261 | 0.192 | 0.171 | 0.489 | 0.496 | 0.446 | 0.467 | 0.382 | 0.579 | 0.918 | 0.298 | 0.0965 | 0.0683 |
| NCI-H2085 | 0.871 | 0.667 | 0.677 | 0.725 | 0.732 | 0.525 | 0.502 | 0.477 | 0.458 | 0.399 | 0.77 | 0.784 | 0.764 | 0.771 | 0.762 | 0.702 | 0.83 | 0.662 | 0.676 | 0.35 |
| NCI-H2087 | 0.457 | 0.39 | 0.448 | 0.449 | 0.487 | 0.968 | 0.868 | 0.859 | 0.826 | 0.504 | 0.62 | 0.6 | 0.683 | 0.752 | 0.788 | 0.696 | 0.802 | 0.411 | 0.224 | 0.139 |
